Assay results as given in patent publication US7186701B2, “Dehydrating agent and method for dehydrating moist article using the agent and dehydrated article obtained by the method” (Kabushiki Kaisha Hayashibara Seibutsu Kagaku Kenkyujo, priority 2001, dated 2007).
Like-named read-outs stand apart in the source and are kept apart here.

Assays:
[1] = Dehydration and pulverization of plain yogurt by non-reducing saccharide; set-up: unit not given here
Method: The anhydrous crystalline cyclotetrasaccharide; crystalline cyclotetrasaccharide, monohydrate; and anhydrous amorphous cyclotetrasaccharide were respectively prepared by the methods in Examples A-1, A-2, and A-3. As the crystalline α,α-trehalose, dihydrate, a commercially available “TREHA®” commercialized by Hayashibara Shoji Inc., Okayama, Japan, was used. The anhydrous crystalline α,α-trehalose and the anhydrous amorphous α,α-trehalose used in this experiment were prepared from a commercialized crystalline α,α-trehalose, dihydrate, using the methods disclosed in Examples for Reference 1 and 3 in Japanese Patent Kokai No. 170,221/94. To four parts by weight of a plain yogurt with a moisture content of about 77% was added either of the above saccharides in an amount of 11 to 16 parts by weight. The resultant mixtures were respectively placed in vats, allowed to stand at 25° C. for 24 hours, and macroscopically observed their change on standing. The judgement was conducted in such a manner of sufficiently dehydrating the resulting mixtures to be solidified, subjected to a pulverizer for pulverization, and evaluated as “◯”, when the solids were easily pulverized; “Δ”, when the dehydration of the resulting mixtures was rather insufficient and the pulverization of solids was substantially difficult, though the resulting mixtures were solidified; and “x”, when the dehydration of the resulting mixtures was insufficient and could not be pulverized by a pulverizer.

[2] = Dehydrating action: moisture absorption on standing at controlled relative humidity; assay type: physicochemical; conditions: for moisture content (%) by the Karl Fisher method: 25° C.
Excerpt: Anhydrous crystalline cyclotetrasaccharide; crystalline cyclotetrasaccharide, monohydrate; anhydrous amorphous cyclotetrasaccharide; and crystalline cyclotetrasaccharide, penta- or hexa-hydrate were experimented in detail on their dehydrating actions, particularly, moisture absorption abilities against saccharides and changes on standing. As a control, anhydrous crystalline α,α-trehalose, anhydrous amorphous α,α-trehalose, and crystalline α,α-trehalose, dihydrate, were used as saccharides. The experiments were as follows: […]

[3] = tested on: α-isomaltosylglucosaccharide-forming enzyme; experiment: Specificity of transfer acceptor (C9 enzyme); assay type: biochemical, Bacillus globisporus C9 strain; set-up: key: −: no saccharide-transferred product was detected through transferring reaction to acceptor; ±: a saccharide-transferred product was detected in an amount of less than one percent through transfer reaction to acceptor; +: a saccharide-transferred product was detected in an amount of at least one percent but less than ten percent through transferring reaction to acceptor; ++: a saccharide-transferred product was detected in an amount of at least ten percent through transferring reaction to acceptor; conditions: acceptor 1.6%, PINE-DEX #100 donor 4%, one unit/g donor, 30° C., pH 6.0, 24 hours
Method: (§1) A variety of saccharides were tested whether they could be used as transferring-acceptors for the α-isomaltosylglucosaccharide-forming enzyme. A solution of D-glucose, D-xylose, L-xylose, D-galactose, D-fructose, D-mannose, D-arabinose, D-fucose, L-sorbose, L-rhamnose, methyl-α-glucopyranoside, methyl-β-glucopyranoside, N-acetyl-glucosamine, sorbitol, α,α-trehalose, isomaltose, isomaltotriose, cellobiose, gentibiose, maltitol, lactose, sucrose, α-cyclodextrin, β-cyclodextrin, or γ-cyclodextrin was prepared. […] The reaction mixtures after the enzymatic reactions were analyzed on gas chromatography (abbreviated as “GLC” hereinafter) for monosaccharides and disaccharides as acceptors, and on HPLC for trisaccharides and higher saccharides as acceptors to confirm whether these saccharides could be used as their transfer acceptors. In the case of performing GLC, the following apparatuses and conditions were used: […] In the case of HPLC analysis, the apparatuses and conditions used were: HPLC apparatus, “CCPD” commercialized by Tosoh Corporation, Tokyo, Japan; column, “ODS-AQ-303” commercialized by YMC Co., Ltd., Tokyo, Japan; eluent, water at a flow rate of 0.5 ml/min; and detection, a differential refractometer.

[4] = tested on: α-isomaltosylglucosaccharide-forming enzyme; experiment: Specificity of transfer acceptor (C11 enzyme); assay type: biochemical, Bacillus globisporus C11 strain; set-up: key: −: no saccharide-transferred product was detected through transferring reaction to acceptor; ±: a saccharide-transferred product was detected in an amount of less than one percent through transfer reaction to acceptor; +: a saccharide-transferred product was detected in an amount of at least one percent but less than ten percent through transferring reaction to acceptor; ++: a saccharide-transferred product was detected in an amount of at least ten percent through transferring reaction to acceptor; conditions: acceptor 1.6%, PINE-DEX #100 donor 4%, one unit/g donor, 30° C., pH 6.0, 24 hours
Method: as §1

[5] = relative humidity 75%, 3 days after treatment
[6] = relative humidity 75%, 0 days after treatment
[7] = relative humidity 75%, 1 day after treatment
[8] = relative humidity 75%, 2 days after treatment
[9] = relative humidity 75%, 7 days after treatment

OC[C@H]1O[C@@H]2OC[C@H]3O[C@H](O[C@@H]4[C@@H](O)[C@@H](OC[C@H]5O[C@H](O[C@H]([C@H]2O)[C@@H]1O)[C@H](O)[C@@H](O)[C@@H]5O)O[C@H](CO)[C@H]4O)[C@H](O)[C@@H](O)[C@@H]3O [Saccharide C, anhydrous amorphous cyclotetrasaccharide]
Water content (before use) ([1]; listed as C): 0.3 | moisture content (%) by the Karl Fisher method ([2]; relative humidity 60%, 0 days after treatment, listed as C): 0.3% | moisture content (%) by the Karl Fisher method ([2]; relative humidity 60%, 1 day after treatment, listed as C): 13.7% | moisture content (%) by the Karl Fisher method ([2]; relative humidity 60%, 2 days after treatment, listed as C): 13.8% | moisture content (%) by the Karl Fisher method ([2]; relative humidity 60%, 3 days after treatment, listed as C): 13.9% | moisture content (%) by the Karl Fisher method ([2]; relative humidity 60%, 7 days after treatment, listed as C): 14.1% | moisture content (%) by the Karl Fisher method ([2]; relative humidity 75%, 0 days after treatment, listed as C): 0.3% | moisture content (%) by the Karl Fisher method ([2]; relative humidity 75%, 1 day after treatment, listed as C): 14.2% | moisture content (%) by the Karl Fisher method ([2]; relative humidity 75%, 2 days after treatment, listed as C): 13.6% | moisture content (%) by the Karl Fisher method ([2]; relative humidity 75%, 3 days after treatment, listed as C): 13.7% | moisture content (%) by the Karl Fisher method ([2]; relative humidity 75%, 7 days after treatment, listed as C): 13.7% | moisture absorption level, % of its weight ([2]; relative humidity of 60%, listed as anhydrous amorphous cyclotetrasaccharide): about 14%

OC[C@H]1O[C@H](O[C@H]2O[C@H](CO)[C@@H](O)[C@H](O)[C@H]2O)[C@H](O)[C@@H](O)[C@@H]1O [Saccharide E, anhydrous crystalline α,α-trehalose, reference compound]
Water content (before use) ([1]; listed as E): 0.3 | moisture content (%) by the Karl Fisher method ([2]; relative humidity 75%, 0 days after treatment, listed as E): 0.3% | moisture content (%) by the Karl Fisher method ([2]; relative humidity 75%, 1 day after treatment, listed as E): 9.7% | moisture content (%) by the Karl Fisher method ([2]; relative humidity 75%, 2 days after treatment, listed as E): 9.6% | moisture content (%) by the Karl Fisher method [2, 5]: 9.8% | moisture content (%) by the Karl Fisher method ([2]; relative humidity 75%, 7 days after treatment, listed as E): 9.8%

OC[C@H]1O[C@H](O[C@H]2O[C@H](CO)[C@@H](O)[C@H](O)[C@H]2O)[C@H](O)[C@@H](O)[C@@H]1O [Saccharide F, anhydrous amorphous α,α-trehalose, reference compound]
Water content (before use) ([1]; listed as F): 0.8 | moisture content (%) by the Karl Fisher method ([2]; relative humidity 75%, 0 days after treatment, listed as F): 0.8% | moisture content (%) by the Karl Fisher method ([2]; relative humidity 75%, 1 day after treatment, listed as F): 9.8% | moisture content (%) by the Karl Fisher method ([2]; relative humidity 75%, 2 days after treatment, listed as F): 9.7% | moisture content (%) by the Karl Fisher method ([2]; relative humidity 75%, 7 days after treatment, listed as F): 9.7%

O.O.OC[C@H]1O[C@H](O[C@H]2O[C@H](CO)[C@@H](O)[C@H](O)[C@H]2O)[C@H](O)[C@@H](O)[C@@H]1O [Saccharide G, crystalline α,α-trehalose, dihydrate, reference compound]
Water content (before use) [1]: 9.7 | moisture content (%) by the Karl Fisher method [2, 6]: 9.7% | moisture content (%) by the Karl Fisher method [2, 7]: 9.7% | moisture content (%) by the Karl Fisher method [2, 8]: 9.7% | moisture content (%) by the Karl Fisher method [2, 5]: 9.8% | moisture content (%) by the Karl Fisher method [2, 9]: 9.8%

OC[C@H]1O[C@H](O[C@H]2O[C@H](CO)[C@@H](O)[C@H](O)[C@H]2O)[C@H](O)[C@@H](O)[C@@H]1O [α,α-Trehalose, α,α-trehalose, reference compound]
Product of saccharide transferring reaction, Enzyme of C9 strain [3]: ++ (a saccharide-transferred product was detected in an amount of at least ten percent through transferring reaction to acceptor) | Product of saccharide transferring reaction, Enzyme of C11 strain [4]: ++ (a saccharide-transferred product was detected in an amount of at least ten percent through transferring reaction to acceptor) | moisture absorption level, % of its weight ([2]; relative humidity of 75%): ≤ 10%

OC[C@H]1O[C@@H]2O[C@H]3[C@H](O)[C@@H](O)[C@@H](O[C@H]4[C@H](O)[C@@H](O)[C@@H](O[C@H]5[C@H](O)[C@@H](O)[C@@H](O[C@H]6[C@H](O)[C@@H](O)[C@@H](O[C@H]7[C@H](O)[C@@H](O)[C@@H](O[C@H]1[C@H](O)[C@H]2O)O[C@@H]7CO)O[C@@H]6CO)O[C@@H]5CO)O[C@@H]4CO)O[C@@H]3CO [α-Cyclodextrin, α-cyclodextrin]
Product of saccharide transferring reaction, Enzyme of C9 strain [3]: − | Product of saccharide transferring reaction, Enzyme of C11 strain [4]: −

OC[C@H]1O[C@@H]2O[C@H]3[C@H](O)[C@@H](O)[C@@H](O[C@H]4[C@H](O)[C@@H](O)[C@@H](O[C@H]5[C@H](O)[C@@H](O)[C@@H](O[C@H]6[C@H](O)[C@@H](O)[C@@H](O[C@H]7[C@H](O)[C@@H](O)[C@@H](O[C@H]8[C@H](O)[C@@H](O)[C@@H](O[C@H]1[C@H](O)[C@H]2O)O[C@@H]8CO)O[C@@H]7CO)O[C@@H]6CO)O[C@@H]5CO)O[C@@H]4CO)O[C@@H]3CO [β-Cyclodextrin, β-cyclodextrin]
Product of saccharide transferring reaction, Enzyme of C9 strain [3]: − | Product of saccharide transferring reaction, Enzyme of C11 strain [4]: −

OC[C@H]1O[C@@H]2O[C@H]3[C@H](O)[C@@H](O)[C@@H](O[C@H]4[C@H](O)[C@@H](O)[C@@H](O[C@H]5[C@H](O)[C@@H](O)[C@@H](O[C@H]6[C@H](O)[C@@H](O)[C@@H](O[C@H]7[C@H](O)[C@@H](O)[C@@H](O[C@H]8[C@H](O)[C@@H](O)[C@@H](O[C@H]9[C@H](O)[C@@H](O)[C@@H](O[C@H]1[C@H](O)[C@H]2O)O[C@@H]9CO)O[C@@H]8CO)O[C@@H]7CO)O[C@@H]6CO)O[C@@H]5CO)O[C@@H]4CO)O[C@@H]3CO [γ-Cyclodextrin, γ-cyclodextrin]
Product of saccharide transferring reaction, Enzyme of C9 strain [3]: − | Product of saccharide transferring reaction, Enzyme of C11 strain [4]: −

crystalline cyclotetrasaccharide, monohydrate [Saccharide B]
Water content (before use) [1]: 2.7 | moisture content (%) by the Karl Fisher method ([2]; relative humidity 60%, 0 days after treatment): 2.7% | moisture content (%) by the Karl Fisher method ([2]; relative humidity 60%, 1 day after treatment): 2.7% | moisture content (%) by the Karl Fisher method ([2]; relative humidity 60%, 2 days after treatment): 2.8% | moisture content (%) by the Karl Fisher method ([2]; relative humidity 60%, 3 days after treatment): 2.8% | moisture content (%) by the Karl Fisher method ([2]; relative humidity 60%, 7 days after treatment): 2.9% | moisture content (%) by the Karl Fisher method [2, 6]: 2.7% | moisture content (%) by the Karl Fisher method [2, 7]: 14.0% | moisture content (%) by the Karl Fisher method [2, 8]: 14.0% | moisture content (%) by the Karl Fisher method [2, 5]: 14.1% | moisture content (%) by the Karl Fisher method [2, 9]: 14.1% | moisture absorption level, % of its weight ([2]; relative humidity of 75%): about 14%
